The values that follow come from patent publication US12600709B2, “Nonpeptide somatostatin type 5 receptor agonists and uses thereof” (Crinetics Pharmaceuticals, Inc., priority 2019, dated 2026).

The assay addresses T1, human somatostatin receptor subtype 5 (Homo sapiens, UniProt P35346).
T1 construct: expressed in transfected cells
Kind of assay: cAMP assay for SST5R (inhibition of cAMP in CHO-K1 cells). The format is cell-based. Conditions: for EC50: inhibition of cAMP via human SST5 receptor, read-out: SST5 potency. The essentials:
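CHO-K1 cells stably expressing human SSTR5 were treated 20 min at 37 °C with compounds plus 1.6 μM NKH477 in HBSS, 0.5 mM HEPES pH 7.4, 0.1% BSA, 0.2 mM IBMX. Lysate cAMP measured by HTRF against a standard curve; EC50 from cAMP-versus-concentration plots.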
For orientation: Changes in cAMP serve as a functional read-out for many G protein-coupled receptors.

Read-outs that look alike come from different tables or passages of the source.

T1 sequence (P35346 whole entry): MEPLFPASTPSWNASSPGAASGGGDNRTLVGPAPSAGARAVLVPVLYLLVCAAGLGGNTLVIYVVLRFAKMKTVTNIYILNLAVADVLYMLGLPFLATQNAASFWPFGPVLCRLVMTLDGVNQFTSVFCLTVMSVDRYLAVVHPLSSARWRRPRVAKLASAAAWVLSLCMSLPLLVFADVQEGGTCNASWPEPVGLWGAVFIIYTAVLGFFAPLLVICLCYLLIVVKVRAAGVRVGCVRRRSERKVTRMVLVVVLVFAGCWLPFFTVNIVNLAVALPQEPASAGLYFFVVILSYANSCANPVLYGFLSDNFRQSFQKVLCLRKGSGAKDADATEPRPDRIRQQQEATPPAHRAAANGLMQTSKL

Consider `N[C@H]1CCN(c2c(C(=O)NC3CCC(F)(F)CC3)cnc(OCCC(=O)O)c2-c2cc(F)cc(F)c2)C1` [1-204, 3-({4-[(3S)-3-aminopyrrolidin-1-yl]-5-[(4,4-difluorocyclohexyl)carbamoyl]-3-(3,5-difluorophenyl)pyridin-2-yl}oxy)propanoic acid], for which the EC50 (Table A) is above 1 µM.
The same measure, in the same setting: then `N[C@H]1CCN(c2c(C(=O)NC3CCC(F)(F)CC3)cnc(OCCCC(=O)O)c2-c2cc(F)cc(F)c2)C1` [1-205, 4-({4-[(3S)-3-aminopyrrolidin-1-yl]-5-[(4,4-difluorocyclohexyl)carbamoyl]-3-(3,5-difluorophenyl)pyridin-2-yl}oxy)butanoic acid], with below 0.01 µM.
With `C[C@H](NC(=O)c1cnc(C(F)(F)F)c(-c2ccc(F)c(F)c2)c1N1CC[C@](C)(N)C1)C1CC1` [1-209, 4-[(3S)-3-amino-3-methylpyrrolidin-1-yl]-N-[(1S)-1-cyclopropylethyl]-5-(3,4-difluorophenyl)-6-(trifluoromethyl)pyridine-3-carboxamide], the EC50 was below 0.01 µM (Table A) and below 0.01 µM (Table B). For the same compound, the “Fold selectivity for SST5 vs SST2” value (Table B, class symbols, SST5 receptor over SST2 receptor) was “+++ (+++=>500)”.
Take `C[C@]1(N)CCN(c2c(C(=O)NC3CCC(F)(F)CC3)cnc(C(F)(F)F)c2-c2cc(F)cc(F)c2)C1` [1-211, 4-[(3S)-3-amino-3-methylpyrrolidin-1-yl]-N-(4,4-difluorocyclohexyl)-5-(3,5-difluorophenyl)-6-(trifluoromethyl)pyridine-3-carboxamide]: the EC50 (Table A) is below 0.01 µM.
Still for that read-out and setting: then `CN(CC1CC1)C(=O)c1cnc(C#N)c(-c2cc(F)cc(F)c2)c1N1CC[C@](C)(N)C1` [1-218, 4-[(3S)-3-amino-3-methylpyrrolidin-1-yl]-6-cyano-N-(cyclopropylmethyl)-5-(3,5-difluorophenyl)-N-methylpyridine-3-carboxamide], with 0.1 to 1 µM.
The same measure, in the same setting: then `C[C@@H](C1CC1)N(C)C(=O)c1cnc(C#N)c(-c2cc(F)cc(F)c2)c1N1CC[C@](C)(N)C1` [1-219, 4-[(3S)-3-amino-3-methylpyrrolidin-1-yl]-6-cyano-N-[(1S)-1-cyclopropylethyl]-5-(3,5-difluorophenyl)-N-methylpyridine-3-carboxamide], with below 0.01 µM; and `C[C@@H](NC(=O)c1cnc(C#N)c(-c2cc(F)cc(F)c2)c1N1CC[C@](C)(N)C1)C(F)(F)F` [1-222, 4-[(3S)-3-amino-3-methylpyrrolidin-1-yl]-6-cyano-5-(3,5-difluorophenyl)-N-[(2R)-1,1,1-trifluoropropan-2-yl]pyridine-3-carboxamide], with below 0.01 µM; and `Cc1ncc(C(=O)NCC2(O)CCCC2)c(N2CC[C@](C)(N)C2)c1-c1cc(F)cc(F)c1` [1-223, 4-[(3S)-3-amino-3-methylpyrrolidin-1-yl]-5-(3,5-difluorophenyl)-N-[(1-hydroxycyclopentyl)methyl]-6-methylpyridine-3-carboxamide], with 0.01 to 0.1 µM.
Same read-out and setting: next, `Cc1ncc(C(=O)NC(CO)C2CC2)c(N2CC[C@](C)(N)C2)c1-c1cc(F)cc(F)c1` (stereo partly drawn) [1-224, 4-[(3S)-3-amino-3-methylpyrrolidin-1-yl]-N-(1-cyclopropyl-2-hydroxyethyl)-5-(3,5-difluorophenyl)-6-methylpyridine-3-carboxamide]: 0.01 to 0.1 µM; `CC(NC(=O)c1cnc(C#N)c(-c2cc(F)cc(F)c2)c1N1CCC(N)C1)C(F)(F)F` (centres unmarked) [1-225, 4-(3-aminopyrrolidin-1-yl)-6-cyano-5-(3,5-difluorophenyl)-N-(1,1,1-trifluoropropan-2-yl)pyridine-3-carboxamide]: below 0.01 µM; `C[C@@H](NC(=O)c1cnc(C#N)c(-c2cc(F)cc(F)c2)c1N1CC[C@@H](N)C1)C(F)(F)F` [1-227, 4-[(3R)-3-aminopyrrolidin-1-yl]-6-cyano-5-(3,5-difluorophenyl)-N-[(2R)-1,1,1-trifluoropropan-2-yl]pyridine-3-carboxamide]: 0.1 to 1 µM.
Turning to `COc1ncc(C(=O)N2CCCCC2)c(N2CC[C@H](N)C2)c1-c1cc(F)cc(F)c1` [1-235, (3S)-1-[3-(3,5-difluorophenyl)-2-methoxy-5-(piperidine-1-carbonyl)pyridin-4-yl]pyrrolidin-3-amine], under “Table A”, the EC50 was above 1 µM.
Still for that read-out and setting: then `COc1ncc(C(=O)N2CCC(F)(F)CC2)c(N2CC[C@H](N)C2)c1-c1cc(F)cc(F)c1` [1-236, (3S)-1-[3-(3,5-difluorophenyl)-5-(4,4-difluoropiperidine-1-carbonyl)-2-methoxypyridin-4-yl]pyrrolidin-3-amine], with above 1 µM.
On the same count and under the same terms, next, `COc1ncc(C(=O)N2CCCC(F)(F)C2)c(N2CC[C@H](N)C2)c1-c1cc(F)cc(F)c1` [1-237, (3S)-1-[3-(3,5-difluorophenyl)-5-(3,3-difluoropiperidine-1-carbonyl)-2-methoxypyridin-4-yl]pyrrolidin-3-amine]: above 1 µM.
Consider `COc1ncc(C(=O)N[C@@H](C)c2ccccn2)c(N2CC[C@](C)(N)C2)c1-c1cc(F)cc(OC(F)F)c1` [1-241, 4-[(3S)-3-amino-3-methylpyrrolidin-1-yl]-5-[3-(difluoromethoxy)-5-fluorophenyl]-6-methoxy-N-[(1S)-1-(pyridin-2-yl)ethyl]pyridine-3-carboxamide], for which the EC50 reads like this: (Table A) 0.01 to 0.1 µM; (Table B) 0.01 to 0.1 µM.
As to `Cc1ncc(C(=O)N[C@@H](C)c2ccccn2)c(N2CC[C@](C)(N)C2)c1-c1cc(F)cc(Cl)c1` [1-243, 4-[(3S)-3-amino-3-methylpyrrolidin-1-yl]-5-(3-chloro-5-fluorophenyl)-6-methyl-N-[(1S)-1-(pyridin-2-yl)ethyl]pyridine-3-carboxamide], the EC50 (Table A) is below 0.01 µM.
Same read-out and setting: next, `C[C@]1(N)CCN(c2c(C(=O)NC3CCC(F)(F)CC3)cnc(C3CC3)c2-c2cc(F)cc(F)c2)C1` [1-281, 4-[(3S)-3-amino-3-methylpyrrolidin-1-yl]-6-cyclopropyl-N-(4,4-difluorocyclohexyl)-5-(3,5-difluorophenyl)pyridine-3-carboxamide]: below 0.01 µM.
Same read-out and setting: then `C[C@H](NC(=O)c1cnc(C2CC2)c(-c2cc(F)cc(F)c2)c1N1CC[C@](C)(N)C1)C(F)(F)F` [1-290, 4-[(3S)-3-amino-3-methylpyrrolidin-1-yl]-6-cyclopropyl-5-(3,5-difluorophenyl)-N-[(2S)-1,1,1-trifluoropropan-2-yl]pyridine-3-carboxamide], with below 0.01 µM.
Take `CCNC(=O)c1cncc(-c2nc3c(C)cccc3[nH]2)c1N1CC[C@](C)(N)C1` [2-1, 4-[(3S)-3-amino-3-methylpyrrolidin-1-yl]-N-ethyl-5-(4-methyl-1H-1,3-benzodiazol-2-yl)pyridine-3-carboxamide]: for the setting “Table A”, the EC50 fell in the range of 0.01 to 0.1 µM.
Same read-out and setting: then `Cc1cccc2[nH]c(-c3cncc(C(=O)N4CCCC4)c3N3CC[C@](C)(N)C3)nc12` [2-2, (3S)-3-methyl-1-[3-(4-methyl-1H-1,3-benzodiazol-2-yl)-5-(pyrrolidine-1-carbonyl)pyridin-4-yl]pyrrolidin-3-amine], with 0.01 to 0.1 µM; and `CCN(C)C(=O)c1cncc(-c2nc3c(C)cccc3[nH]2)c1N1CC[C@](C)(N)C1` [2-3, 4-[(3S)-3-amino-3-methylpyrrolidin-1-yl]-N-ethyl-N-methyl-5-(4-methyl-1H-1,3-benzodiazol-2-yl)pyridine-3-carboxamide], with 0.01 to 0.1 µM.
The same measure, in the same setting: then `Cc1cccc2[nH]c(-c3cncc(C(=O)NC4CCCC4)c3N3CC[C@](C)(N)C3)nc12` [2-4, 4-[(3S)-3-amino-3-methylpyrrolidin-1-yl]-N-cyclopentyl-5-(4-methyl-1H-1,3-benzodiazol-2-yl)pyridine-3-carboxamide], with below 0.01 µM.
Same read-out and setting: next, `Cc1cccc2[nH]c(-c3cncc(C(=O)NC4CCOC4)c3N3CC[C@](C)(N)C3)nc12` (stereo partly drawn) [2-5, 4-[(3S)-3-amino-3-methylpyrrolidin-1-yl]-5-(4-methyl-1H-1,3-benzodiazol-2-yl)-N-(oxolan-3-yl)pyridine-3-carboxamide]: 0.1 to 1 µM; `Cc1cccc2[nH]c(-c3cncc(C(=O)Nc4ccccc4)c3N3CC[C@](C)(N)C3)nc12` [2-6, 4-[(3S)-3-amino-3-methylpyrrolidin-1-yl]-5-(4-methyl-1H-1,3-benzodiazol-2-yl)-N-phenylpyridine-3-carboxamide]: below 0.01 µM.
As to `COCCNC(=O)c1cncc(-c2nc3c(C)cccc3[nH]2)c1N1CC[C@](C)(N)C1` [2-8, 4-[(3S)-3-amino-3-methylpyrrolidin-1-yl]-N-(2-methoxyethyl)-5-(4-methyl-1H-1,3-benzodiazol-2-yl)pyridine-3-carboxamide], under “Table A”, the EC50 was in the range of 0.01 to 0.1 µM.
The same measure, in the same setting: next, `Cc1cccc2[nH]c(-c3cncc(C(=O)NCCO)c3N3CC[C@](C)(N)C3)nc12` [2-9, 4-[(3S)-3-amino-3-methylpyrrolidin-1-yl]-N-(2-hydroxyethyl)-5-(4-methyl-1H-1,3-benzodiazol-2-yl)pyridine-3-carboxamide]: 0.1 to 1 µM; `Cc1cccc2[nH]c(-c3cncc(C(=O)N(C)CC(F)(F)F)c3N3CC[C@](C)(N)C3)nc12` [2-10, 4-[(3S)-3-amino-3-methylpyrrolidin-1-yl]-N-methyl-5-(4-methyl-1H-1,3-benzodiazol-2-yl)-N-(2,2,2-trifluoroethyl)pyridine-3-carboxamide]: below 0.01 µM.
Same read-out and setting: next, `Cc1cccc2[nH]c(-c3cncc(C(=O)NC4CC4)c3N3CC[C@](C)(N)C3)nc12` [2-12, 4-[(3S)-3-amino-3-methylpyrrolidin-1-yl]-N-cyclopropyl-5-(4-methyl-1H-1,3-benzodiazol-2-yl)pyridine-3-carboxamide]: 0.01 to 0.1 µM.
Same read-out and setting: then `Cc1cccc2[nH]c(-c3cncc(C(=O)NCC4CC4)c3N3CC[C@](C)(N)C3)nc12` [2-13, 4-[(3S)-3-amino-3-methylpyrrolidin-1-yl]-N-(cyclopropylmethyl)-5-(4-methyl-1H-1,3-benzodiazol-2-yl)pyridine-3-carboxamide], with below 0.01 µM.
